Measurements reported in article PMC5677370, “Structure-based nuclear import mechanism of histones H3 and H4 mediated by Kap123” (eLife, 2017).

Experiments:
Kap123-H3-NLS = assay: Competition pull-down: pre-assembled MBP-Kap123-H3-NLS challenged by H4-NLS; format: binding; conditions: amylose affinity pull-down, MBP-tagged Kap123 pre-assembled with H3_1–59-Sumo, challenged by H4_1–48-Sumo (wild-type or mutant) 0x, 1x, 2x, 5x, 10x; 30 mM Tris–HCl pH 8.0, 50 mM NaCl, 1 mM DTT, 0.01% NP-40; 90 mins at 4°C; three independent assays
Description: Figure 6. Competition assay of H3- and H4-NLSs (wild-type H4 and mutant H4^K5Q/K12Q) toward Kap123 association. Competition of H3_1–59- and H4_1–48-Sumo (a) as well as H3_1–59- and H4_1–48 ^K5Q/K12Q-Sumo (b) toward Kap123 binding was monitored by amylose affinity pull-downs using MBP-tagged Kap123. A fixed amount of the pre-assembled complex of MBP-tagged Kap123 and H4_1–48-Sumo was challenged by an increasing amount of H3_1–59-Sumo. The same competition assay was done by using pre-incubated MBP-tagged Kap123-H3_1–59-Sumo and gradually increasing the amount of H4_1–48-Sumo either with wild-type (a) or mutant (b), K5Q/K12Q) H4 sequence. (c–d) The normalized bar graphs of remaining H3_1–59- and H4_1–48-NLS-Sumo after challenged with increased amounts of H4_1–48- and H3_1–59-NLS-Sumo (0x, 1x, 2x, 5x, and 10x) toward Kap123, respectively. Either H4_1–48-NLS-Sumo (c) or H4_1–48^K5Q/K12Q-NLS-Sumo (d) was used for the H3_1–59-NLS-Sumo competition. Three independent competition assays were carried out and the band intensity was measured to calculate the error bar. Figure 6—figure supplement 1. […] (a) Competition of H3_1–59-Sumo using either H4_1–48-Sumo or H4_1–48 ^K5Q/K8Q/K12Q-Sumo toward Kap123 binding was monitored by amylose affinity pull-downs using MBP-tagged Kap123. […] Three independent competition assays were carried out and the band intensity was measured to calculate the error bar. […]

wild-type Kl Kap123 = assay: SPR binding of wild-type or mutant H3_1–35-/H4_1–21-NLS peptides to immobilized wild-type Kap123; set-up: species or system Kluyveromyces lactis; conditions: 10 mM HEPES, 150 mM NaCl, 7°C, relative to wild-type; for affinity of mutant H3-NLS toward Kap123: wild-type Kap123 immobilized 7500 RU on CM5, H3_1–35-NLS peptides 0-5 μM
Description: Figure 5. Surface plasmon resonance analysis of wild-type Kl Kap123 in the presence of wild-type or mutants of H3_1–35-/H4_1–21-NLSs. The biacore diagrams (a) and the normalized bar graph (c) of wild-type Kap123 in the presence of wild-type or mutant H3_1-35-NLS. The wild-type Kap123 was immobilized on a CM5 chip with 7500 RU and the wild-type or mutant H3_1–35-NLS peptides (H3_K14A, H3_K14Q, H3_K23A, H3_K23Q, or H3_K14Q/K23Q) were injected at different concentrations (0, 0.07, 0.15, 0.32, 0.65, 1.25, 2.5, and 5 μM). The biacore diagrams (b) and the bar graph (d) of wild-type Kap123 in the presence of wild-type or mutant H4_1–21-NLS. The wild-type Kap123 was immobilized on a CM5 chip with 7116 RU and the wild-type or mutant H4_1–21-NLS peptides (H4_K16A or H4_K5Q/K12Q) were injected at different concentrations (0, 0.32, 0.62, 1.25, 2.5, 5, and 10 μM). The H4K16Q peptide was used at different concentrations (0, 0.7, 1.5, 3, 6, 12, and 25 uM). See details in Materials and method section. Red-colored sensorgrams represent positive controls of wild-type Kap123, which were injected 2000 nM wild-type Kap123 before and after sample injection (a–b). The relative binding between wild-type Kap123 and mutant peptides was measured at five different concentrations for generating error bars (c–e). (e) The normalized affinity bar graph of H3-/H4-NLS toward wild-type Kap123 was derived from (a) and (b).
A CM5 chip (GE healthcare) was coated with streptavidin in 10 mM acetate pH 4.5 at a flow rate of 5 μl/min. The biotinylated C-terminal histone H3 peptide (residues 1–35) was synthesized (Anygen, South Korea) and immobilized on the CM5 chip coated with streptavidin with a flow rate of 5 μl/min in the binding buffer (10 mM HEPES, 150 mM NaCl). Various concentrations of the wild-type and mutant Kl Kap123 protein (see figure legends of Figures 3 and 4) were prepared in the binding buffer with 2 mM TCEP and then injected at the flow rate of 30 μl/min in the binding buffer using a T200 instrument (GE Healthcare) at 7°C. After injecting the sample, the chip was regenerated by a regeneration buffer (1 M NaCl and 20 mM NaOH in binding buffer) at a flow rate of 30 μl/min. For measuring the interaction of wild-type Kl Kap123 and mutant histone H3 or H4 peptides, 0.1 μM Kap123 diluted in10mM acetate pH 4.0 was immobilized 7100 RU on the CM5 chip at flow rate of 5 μl/min. Peptides of histone H3 or H4 mutants were injected at a flow rate of 30 μl/min in the binding buffer and the binding was monitored at various concentrations (0, 0.31, 0.62, 1.25, 2.5, 5 and 10 uM) at 7°C. For the H4K16Q peptide, Kap 123 was immobilized with 5100 RU on CM5 chip, and H4K16Q and wild-type H4 peptides (0, 0.7, 1.5, 3, 6, 12 and 25 uM) were injected as analytes at a flow rate of 30 μl/min at 7°C.

Kapβ2 = conditions: ref Soniat et al., 2016; read-out: KD of Kapβ2-H3_1–47-NLS interaction; cited from earlier work
Text: Accumulated evidence illustrates that cytosolic histones H3 and H4 are acetylated prior to nuclear import and believed to play a role in the translocation process mediated by Kap123 ([Sobel et al., 1994]; [Sobel et al., 1995]; [Loyola et al., 2006]; [Jasencakova et al., 2010]; [Ma et al., 1998]; [Blackwell et al., 2007]; [Kuo et al., 1996]).

[1] = test system: nuclear translocation of the H4-NLS-GFP reporter; conditions: GFP reporter assay; ref Blackwell et al., 2007; cited from earlier work

Substance: H4_1–48^K5Q/K12Q-Sumo: C-terminal Sumo-tagged histone H4_1–48, K5Q/K12Q
- competition with H3-NLS for Kap123 (Kap123-H3-NLS): loss of competition

Substance: H3 K14Q
- affinity of mutant H3-NLS toward Kap123 (wild-type Kl Kap123; five concentrations): decreased the affinity toward Kap123

Substance: H3 K14A
- affinity of mutant H3-NLS toward Kap123 (wild-type Kl Kap123; five concentrations): decreased the affinity toward Kap123

Substance: H3_1–47-NLS: histone H3 residues 1–47 NLS bound to Kapβ2
- Kd (Kapβ2): 77.1 nM

Substance: H4-NLS^K16Q
- affinity of H4 K16Q toward Kap123 (wild-type Kl Kap123; Kap123 immobilized 5100 RU on CM5, H4K16Q 0-25 uM): reduced the affinity toward Kap123 although the effect was mild

Substance: H4-NLS^K5Q/K8Q/K12Q: tri-acetylation mimic mutant of H4-NLS (H4_1–48-Sumo in competition assay)
- competition with H3-NLS for Kap123 (Kap123-H3-NLS): no longer competed with H3-NLS in Kap123 interaction
- nuclear translocation of H4-NLS-GFP reporter, acetylation mimic [1]: dramatically reduced the nuclear translocation

Substance: H4-NLS^K16A
- affinity of mutant H4-NLS toward Kap123 (wild-type Kl Kap123; wild-type Kap123 immobilized 7116 RU on CM5, H4_1–21-NLS peptides 0-10 μM, five concentrations): reduced the affinity toward Kap123 although the effect was mild

Substance: H3 K23Q
- affinity of mutant H3-NLS toward Kap123 (wild-type Kl Kap123; five concentrations): decreased the affinity toward Kap123

Substance: H3 K23A
- affinity of mutant H3-NLS toward Kap123 (wild-type Kl Kap123; five concentrations): decreased the affinity toward Kap123
